Results: publication PMC12807552, “The Synthesis of BODIPY-TKI Conjugates and Investigation of Their Ability to Target the Epidermal Growth Factor Receptor” (Targets (Basel), 2023)

Target: EGFR kinase domain (epidermal growth factor receptor) (Homo sapiens, UniProt P00533)
Assay: biochemical

EGFR kinase domain (epidermal growth factor receptor), sequence (P00533 695-1210): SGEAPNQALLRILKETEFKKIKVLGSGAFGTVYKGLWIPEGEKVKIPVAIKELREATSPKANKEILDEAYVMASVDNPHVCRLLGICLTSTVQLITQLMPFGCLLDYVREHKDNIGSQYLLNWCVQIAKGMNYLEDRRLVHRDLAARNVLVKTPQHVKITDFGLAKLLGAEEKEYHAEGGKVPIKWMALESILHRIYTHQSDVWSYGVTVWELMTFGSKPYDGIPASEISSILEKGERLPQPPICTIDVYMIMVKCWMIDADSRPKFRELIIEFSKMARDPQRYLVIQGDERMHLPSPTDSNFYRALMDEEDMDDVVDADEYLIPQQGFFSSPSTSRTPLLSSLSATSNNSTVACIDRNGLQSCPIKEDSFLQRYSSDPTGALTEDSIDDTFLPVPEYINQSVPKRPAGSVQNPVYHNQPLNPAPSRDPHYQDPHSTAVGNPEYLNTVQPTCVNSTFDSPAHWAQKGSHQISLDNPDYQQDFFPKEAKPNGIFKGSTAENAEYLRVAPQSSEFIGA

**Q.** For COCCOc1cc2ncnc(Nc3cccc(-c4cn(CCOCCOCCOCCNC(=S)Nc5ccc(-c6c7ccccc7c7n6[B-](F)(F)[N+]6=C(c8ccc(N=C=S)cc8)c8ccccc8C6=C7c6cc(OC)cc(OC)c6)cc5)nn4)c3)c2cc1OCCOC [compound 5, BODIPY-monoTKI], which Kd is on record?
**A.** 8.04 µM
